What was measured:
conscious SCI rats = settings: Beauval et al., 2015; cited from earlier work
[1] = Urine concentrations in humans after a single oral dose; type: in vivo, human; settings: see Example 2
[2] = test system: rhythmic bladder contractions (RBC) in anesthetized female rats; test: Isovolumetric model: rhythmic bladder contractions (RBC), cystometry; type: in vivo, rat; settings: for RBC amplitude, basal / RBC frequency, basal: basal period −30/0 min before i.v. administration, group mean
From the text: In rats, under isovolumetric condition, bladder distension induced rhythmic bladder contractions (RBC) (Aizawa et al, (2015) Effects of L-arginine, mirabegron, and oxybutynin on the primary bladder afferent nerve activities synchronized with reflexic, rhythmic bladder contractions in the rat. Neurourology & Urodynamics 34:368-374). This isovolumetric model allows the evaluation of compound on RBC. It is a closed system where the bladder is slowly infused through a urethral catheter with saline until the occurrence of spontaneous rhythmic bladder contractions.
Test substance effects were compared to that of the reference substance, tolterodine, an […], marketed for overactive bladder in humans.
Protocol: • Animals were anesthetized with urethane (i.p.). • Ureters were ligated and sectioned close to the kidneys. • Intravesical catheter was inserted into the bladder though the urinary meatus. • Urinary meatus was closed. • A catheter was inserted into the jugular vein for compound administration. • Bladder was filled with saline until the occurrence of RBC. • After 30 min basal period, compounds were administered as described below. • The effect of the test substances was followed by 1-hour post administration.
Rats were anesthetized with an intraperitoneal administration of urethane (1 g/kg). The ureters were ligated and sectioned close to the kidneys. A catheter (0.30 and 0.70 mm of inner and outer diameters, respectively) was inserted through the urinary meatus into the bladder before urethral ligature. Another catheter (0.58 and 0.96 mm of inner and outer diameters, respectively) was inserted into the jugular vein for intravenous (i.v.) administration.
For all group, animals were treated by i.v. route (1 mL/kg) (slow bolus) after the basal period.
The vesical catheter was connected via a T-tube to a strain gauge (to measure intra-vesical pressure) and to a syringe. Isovolumetric bladder contractions were induced by stepwise injections of physiological saline at room temperature (100 μL every 5 min) until stable RBC occurred. Vesical pressure was continuously recorded. After a 30 min control period (basal values), substances or vehicle were i.v. administered. The effects of substances were followed during 60 min after administration. At the end of the experiments, animals were sacrificed by cervical dislocation.
The following parameters were analyzed: • Amplitude of RBC (mmHg) • Frequency of RBC (number/30 min) • Time of inhibition (sec)
The % variation from the basal values were calculated for RBC frequency and amplitude.
Statistical analysis and graphs were performed using GraphPad Prism® (GraphPad Software Inc., La Jolla, CA, USA). A p value <0.05 was accepted for statistical significance.

[3] = 0/60 min after i.v., Cpd (IA) 3 mg/kg (n=8), tolterodine 1 mg/kg, mean
[4] = 0/60 min after i.v., Cpd (IA) 3 mg/kg, tolterodine 1 mg/kg, mean
[5] = 0/60 min after i.v., Cpd (IA) 3 mg/kg, tolterodine 1 mg/kg, mean, listed as Tolterodine
[6] = i.v., Cpd (IA) 3 mg/kg, tolterodine 1 mg/kg, vs basal
[7] = i.v., Cpd (IA) 3 mg/kg, tolterodine 1 mg/kg, vs vehicle

C[C@H](Cc1ccc2c(c1)OC(C(=O)[O-])(C(=O)[O-])O2)NC[C@H](O)c1cccc(Cl)c1.[Na+].[Na+] [CL-316,243]
bladder capacity (conscious SCI rats): significantly increase
frequency of NVC (conscious SCI rats): reduce

O=C(O)c1nc2ccccc2n(C2CC3CCCC(C2)N3C2CC3CCCC(C3)C2)c1=O (centres unmarked) [compound of formula (I)]
route of excretion [1]: primarily excreted from the urine largely unchanged

Cc1ccc(O)c([C@H](CCN(C(C)C)C(C)C)c2ccccc2)c1 [tolterodine]
RBC amplitude, % variation from basal [2, 3]: −30.83±5.24%
RBC amplitude, treated period [2, 3]: 18.56 mmHg
RBC amplitude, % variation from basal ([2]; 0/60 min after i.v., Cpd (IA) 3 mg/kg (n=8), tolterodine 1 mg/kg, mean, listed as Tolterodine): −30.83%
RBC frequency, % variation from basal [2, 4]: −33.93±10.93%
RBC frequency, treated period [2, 4]: 15.30±2.72 nb of RBC/30 min
RBC frequency, % variation from basal [2, 5]: −33.93%
RBC frequency, treated period [2, 5]: 15.30 nb of RBC/30 min
Inhibition time ([2]; after i.v., Cpd (IA) 3 mg/kg, tolterodine 1 mg/kg, mean): 87.04 s
RBC amplitude, basal [2]: 27.22±2.03 mmHg
RBC frequency, basal [2]: 23.00±0.87 nb of RBC/30 min
RBC amplitude, basal ([2]; listed as Tolterodine): 27.22 mmHg
RBC frequency, basal ([2]; listed as Tolterodine): 23.00 nb of RBC/30 min
bladder afferent activity ([2]; conclusion of Example 1): no effect
bladder efferent activity ([2]; conclusion of Example 1): effectively inhibited
RBC amplitude, effect versus basal [2, 6]: significantly reduced
RBC frequency, effect versus basal [2, 6]: significantly decreased
RBC amplitude (% variation), effect versus vehicle [2, 7]: significantly reduced
RBC frequency (% variation), effect versus vehicle [2, 7]: did not significantly modify
time of inhibition, effect versus vehicle [2, 7]: no significant difference

O=C(O)c1nc2ccccc2n([C@H]2C[C@H]3CCC[C@@H](C2)N3C2CC3CCCC(C3)C2)c1=O (single isomer, unassigned) [compound of formula (I′)]
route of excretion [1]: primarily excreted from the urine largely unchanged

— US20250381180A1, “METHODS OF TREATING OR PREVENTING OVERACTIVE BLADDER SYNDROME” (Purdue Pharma L.P., priority 2022, published 2025)
